Laboratory results as given in the NIST ThermoML archive (doi:10.1021/je700443d).
“And” between values parts separate entries of the source, which are not always exact repeats. Equal values may be shown once.

Details: Liquid; for vapor or sublimation pressure: Closed cell (Static) method; for mass density: determined from pressure vs temperature measurement to find liquid-full point for a closed cell

CO[Si](OC)(OC)OC [silicon tetramethoxide]
Details | mass density | vapor or sublimation pressure
334.15 K | 990 kg/m3 | 30 kPa
335.15 K | – | 30 kPa
336.15 K | – | 30 kPa
337.15 K | – | 30 kPa
338.15 K | – | 30 kPa
339.15 K | – | 30 kPa
341.15 K | – | 30 kPa
342.15 K | – | 30 kPa
343.15 K | – | 30 kPa
344.15 K | – | 30 kPa
345.15 K | – | 40 kPa
347.15 K | – | 40 kPa
348.15 K | 940 kg/m3 | 40 kPa
349.15 K | – | 40 kPa
351.15 K | – | 40 kPa
352.15 K | – | 40 kPa
353.15 K | – | 40 kPa
355.15 K | – | 40 kPa
356.15 K | – | 40 kPa
357.15 K | – | 50 kPa
358.15 K | – | 50 kPa
359.15 K | – | 50 kPa
361.15 K | – | 50 kPa
362.15 K | – | 50 kPa
363.15 K | – | 50 kPa
364.15 K | – | 50 kPa
365.15 K | 920 kg/m3 | 50 kPa
366.15 K | – | 60 kPa
368.15 K | – | 60 kPa
369.15 K | – | 60 kPa
370.15 K | – | 60 kPa
371.15 K | – | 60 kPa
372.15 K | – | 60 kPa
373.1 K | – | 70 kPa
374.15 K | – | 70 kPa
375.15 K | – | 70 kPa
377.15 K | – | 70 kPa
378.15 K | – | 80 kPa
379.15 K | – | 80 kPa
380.15 K | – | 80 kPa
381.15 K | – | 80 kPa
382.15 K | – | 90 kPa
383.15 K | 900 kg/m3 | –
384.15 K | – | 90 kPa
385.15 K | – | 90 kPa
386.15 K | – | 90 kPa
387.15 K | – | 100 kPa
388.15 K | – | 100 kPa
389.15 K | 880 kg/m3 | –
390.15 K | – | 100 kPa
391.15 K | – | 110 kPa
392.15 K | – | 110 kPa
393.15 K | – | 110 kPa
394.15 K | – | 120 kPa
395.15 K | – | 120 kPa
397.15 K | – | 130 kPa
398.15 K | – | 130 kPa
399.15 K | – | 130 kPa
400.15 K | – | 140 kPa
401.15 K | – | 140 kPa
403.15 K | – | 150 kPa
404.15 K | – | 150 kPa
405.15 K | – | 160 kPa
406.15 K | 850 kg/m3 | 160 kPa
407.15 K | – | 170 kPa
408.15 K | – | 170 kPa
409.15 K | – | 180 kPa
411.15 K | – | 180 kPa
412.15 K | – | 190 kPa
413.15 K | – | 190 kPa
414.15 K | – | 200 kPa
415.15 K | 840 kg/m3 | 200 kPa
417.15 K | – | 210 kPa
418.15 K | – | 220 kPa
419.15 K | – | 220 kPa
420.15 K | – | 230 kPa
421.15 K | – | 230 kPa
422.15 K | – | 240 kPa
424.15 K | – | 250 kPa
425.15 K | – | 260 kPa
426.15 K | – | 260 kPa
427.15 K | – | 270 kPa
428.15 K | – | 280 kPa
429.15 K | – | 280 kPa
430.15 K | – | 290 kPa
432.15 K | – | 300 kPa
433.15 K | – | 310 kPa
434.15 K | 800 kg/m3 | 320 kPa
435.15 K | – | 320 kPa
436.15 K | – | 330 kPa
437.15 K | – | 340 kPa
439.15 K | – | 350 kPa
440.15 K | 800 kg/m3 | 360 kPa
441.15 K | – | 360 kPa
442.15 K | – | 370 kPa
443.15 K | – | 380 kPa
444.15 K | – | 390 kPa
445.15 K | – | 400 kPa
447.15 K | – | 410 kPa
448.15 K | – | 410 kPa
449.15 K | – | 420 kPa
450.15 K | – | 430 kPa
451.15 K | – | 440 kPa
452.15 K | – | 450 kPa
453.15 K | – | 460 kPa
454.15 K | – | 470 kPa
456.15 K | – | 480 kPa
457.15 K | – | 490 kPa
458.15 K | – | 500 kPa
459.15 K | – | 510 kPa
460.15 K | – | 520 kPa
461.15 K | – | 530 kPa
462.15 K | – | 550 kPa
463.15 K | 750 kg/m3 and 770 kg/m3 | 560 kPa
465.15 K | – | 570 kPa
466.15 K | – | 580 kPa
467.15 K | – | 590 kPa
468.15 K | – | 610 kPa
469.15 K | – | 620 kPa
470.15 K | – | 630 kPa
471.15 K | – | 650 kPa
472.15 K | – | 660 kPa
474.15 K | – | 670 kPa
475.15 K | – | 690 kPa
476.15 K | – | 700 kPa
477.15 K | – | 720 kPa
478.15 K | – | 730 kPa
479.15 K | – | 750 kPa
480.15 K | 710 kg/m3 | 760 kPa
481.15 K | – | 780 kPa
482.15 K | – | 790 kPa
483.15 K | 730 kg/m3 | 810 kPa
485.15 K | – | 820 kPa
486.15 K | – | 840 kPa
487.15 K | – | 860 kPa
488.15 K | – | 870 kPa
489.15 K | – | 890 kPa
490.15 K | – | 910 kPa
491.15 K | – | 920 kPa
492.15 K | – | 940 kPa
493.15 K | – | 960 kPa
494.15 K | – | 980 kPa
495.15 K | – | 1000 kPa
497.15 K | – | 1010 kPa
498.15 K | – | 1030 kPa
499.15 K | – | 1050 kPa
500.15 K | – | 1070 kPa
501.15 K | – | 1090 kPa
502.15 K | 690 kg/m3 | 1110 kPa
503.15 K | – | 1130 kPa
504.15 K | – | 1150 kPa
505.15 K | – | 1160 kPa
506.15 K | – | 1180 kPa
507.15 K | – | 1200 kPa
508.15 K | – | 1220 kPa
509.15 K | – | 1250 kPa
510.15 K | – | 1270 kPa
512.15 K | – | 1280 kPa
513.15 K | – | 1300 kPa
514.15 K | – | 1320 kPa and 1340 kPa
516.15 K | – | 1360 kPa
517.15 K | – | 1380 kPa
518.15 K | – | 1400 kPa
519.15 K | 650 kg/m3 | 1420 kPa
520.15 K | – | 1440 kPa
521.15 K | – | 1460 kPa
522.15 K | – | 1480 kPa
532.15 K | 610 kg/m3 | –
